The results in this text go back to article PMC6271559, “Synthesis and Evaluation of 2,4-Disubstituted Quinazoline Derivatives with Potent Anti-Angiogenesis Activities” (Molecules, 2014).

Where two headings read alike, the source gives them in different places.

Data set [1] has as its system HUVEC adhesion to collagen. The data set can be described thus: HUVEC adhesion assay on type I collagen. It is filed as cell-based, human. The following applies: Homo sapiens, HUVEC, adhesion of HUVEC on collagen, 37 °C. The source says:
A perfect angiogenesis inhibitor must be show lower toxicity toward HUVECs, while showing high inhibitive capability towards the proliferation, migration, and differentiation of HUVECs. To assess the inhibitory effects of 2,4-disubstituted quinazoline derivatives, three assays were used: HUVEC adhesion assay, HUVEC migration assay and CAM assay. Firstly, to test the inhibitory effects of quinazoline derivatives on the attachment of endothelial cells to type I collagen, cell adhesion assays were carried out.
Cell adhesion assay was carried out by a reported method with slight modification. Wells of a 96-well plate were coated at room temperature overnight with rat trail tendon collagen type I (2 μg) in PBS in a final volume of 100 μL. The wells were washed three times with PBS ([…]) and then blocked with 0.2% bovine serum albumin (BSA) in PBS ([…]) for 2 h at 37 °C in a cell culture incubator. The wells were then washed three times with PBS ([…]). HUEVCs were detached from the dish, resuspended in DMEM, and added (50 μL, 10^4 cells/mL) to each well followed by the related compounds (50 μL) at various concentrations. The plates were incubated for 1 h or 3 h at 37 °C and then washed three times with PBS (100 μL). The attached cells were fixed and stained with 0.2 % crystal violet in 20% methanol for 10 min, then washed three times with PBS ([…]). The cells were solubilized by 2% SDS and the OD was measured at 570 nm. Attachment was determined by both 1 and 3 h as described above. Each compound was tested in triplicate and each experiment was repeated three times.

Data set [2] concerns SMMC-7721 (human liver cancer) cells. In words: MTT cytotoxicity assay, SMMC-7721. The format is cell-based. Particulars: 48 h, mean of three independent assays. The source says: (§1) In the early 80s, scientists proposed anti-angiogenesis as a potential target in cancer therapy. Much research in the past 30 years has targeted tumor angiogenesis as a means of inhibiting the process of tumor-caused blood vessel formation. Endothelial cells, which come from the inner lining of blood vessels, makes up a fundamental part of new blood vessels as well as pre-existing ones. A complete angiogenesis process includes the proliferation, migration, and differentiation of endothelial cells, so a great deal of angiogenesis inhibitors discovered to date target endothelial cells. We thus employed a cell proliferation assay to evaluate the cytotoxicity of quinazoline derivatives against both normal (HUVEC) and tumor cell lines (CNE-2, PC-3, and SMMC-7721 cell lines) so we can screen some molecules that have cytotoxicity against tumor cells but low cytotoxicity against HUVECs. Meanwhile, an appropriate concentration range of these compounds could be determined to further study their inhibitive effects against the proliferation, migration, and differentiation of HUVECs. The cytotoxic activities of quinazoline derivatives against human tumor cell lines CNE-2 (human nasopharyngeal cancer), PC-3 (human prostatic carcinoma), SMMC-7721 (human liver cancer) and Human Umbilical Vein Endothelial Cells (HUVECs) were determined by using the MTT cytotoxicity assay.
(§2) HUVEC, CNE-2, PC-3, and 7721 cell lines were seeded on 96-well plates at a concentration of 5,000 cells per well and exposed to various concentrations of quinazoline derivatives. After 48 h of treatment at 37 °C in a humidified atmosphere of 5% CO2, 5 mg/mL MTT solution (10 μL) was added to each well and further incubated for 4 h. Each well was then added dimethyl sulfoxide (DMSO, 100 μL), and the optical density (OD) was recorded at 490 nm. All measurements were done in triplicate, and the IC50 values were derived from the mean OD values of the triplicate tests versus drug concentration curves.

In data set [3] the test system is CNE-2 (human nasopharyngeal cancer) cells. The data set can be described thus: MTT cytotoxicity assay, CNE-2. It is filed as cell-based. The following applies: 48 h, mean of three independent assays.
From the text: as §1, §2

A short description of data set [4]: MTT cytotoxicity assay, HUVEC. The following applies: human, HUVEC (human umbilical vein endothelial cells), mean of three independent assays. It is filed as cell-based.
From the text: as §1, §2

Data set [5] concerns PC-3 (human prostatic carcinoma) cells. In words: MTT cytotoxicity assay, PC-3. The format is cell-based. Particulars: Prostatic carcinoma cell, 48 h, mean of three independent assays.
From the text: as §1, §2

Setting [6] is: 1 h, 1 h, read-out: 1 h Inhibition Rate % Dose 15 μM.
The mark [7] stands for this setting: 1 h, 1 h, read-out: 1 h Inhibition Rate % Dose 30 μM.
[8] abbreviates: 3 h, 3 h, read-out: 3 h Inhibition Rate % Dose 15 μM.
Where [9] appears, read: 3 h, 3 h, read-out: 3 h Inhibition Rate % Dose 30 μM.

`CN(C)CCCNc1nc(-c2ccccc2NC(=O)CCN2CCOCC2)nc2ccccc12` [Compound 11e, N-(2-(4-(3-(Dimethylamino)propylamino)quinazolin-2-yl)phenyl)-3-morpholinopropanamide] showed a melting point of 165 to 167 °C. Also, the inhibition at 15 µM in data set [1] (setting [6]) worked out at 27.4 ± 0.3%. In addition, in data set [1] (setting [7]), the inhibition at 30 µM was found to be 32.3 ± 0.2%. For the same compound, the inhibition at 15 µM in data set [1] (setting [8]) turned out to be 25.6 ± 0.3%. Further, the inhibition at 30 µM in data set [1] (setting [9]) is 36.4 ± 0.3%. Moreover, half-maximal inhibition in data set [2] (IC50) was put at 20.9 ± 0.3 µM. For the same compound, the IC50 in data set [3] was determined as 20.1 ± 0.2 µM. 84.9 ± 0.3 µM corresponded to half-maximal inhibition in data set [4] (IC50 at 48 h). The same compound gave an IC50 in data set [5] of 19.6 ± 0.2 µM.
In turn, `CCN(CC)CCC(=O)Nc1ccccc1-c1nc(NCCCN(C)C)c2ccccc2n1` [Compound 11c, N-(2-(4-(3-(Dimethylamino)propylamino)quinazolin-2-yl)phenyl)-3-(diethylamino)propanamide] had a melting point of 158 to 160 °C. For the same compound, the inhibition at 15 µM in data set [1] (setting [6]) stood at 29.9 ± 0.2%. For the same compound, the inhibition at 30 µM in data set [1] (setting [7]) came out at 38.7 ± 0.2%. Besides, the inhibition at 15 µM in data set [1] (setting [8]) is 29.4 ± 0.2%. In addition, the inhibition at 30 µM in data set [1] (setting [9]) was found to be 36.3 ± 0.4%. Inhibition in data set [2] was half-maximal at 13.8 ± 0.1 µM (IC50). Further, inhibition in data set [3] was half-maximal at 16.8 ± 0.4 µM (IC50). Further, in data set [4], 66.8 ± 0.3 µM corresponded to half-maximal inhibition (IC50 at 48 h). Further, the IC50 in data set [5] amounted to 18.7 ± 0.3 µM.
With `CN(C)CCCNc1nc(-c2ccccc2NC(=O)CCCN2CCOCC2)nc2ccccc12` [Compound 12e, N-(2-(4-(3-(Dimethylamino)propylamino)quinazolin-2-yl)phenyl)-4-morpholinobutanamide], the melting point lay within 152 to 154 °C. For the same compound, in data set [1] (setting [6]), the inhibition at 15 µM was 26.5 ± 0.2%. Further, in data set [1] (setting [7]), the inhibition at 30 µM worked out at 34.7 ± 0.2%. Besides, in data set [1] (setting [8]), the inhibition at 15 µM is 17.2 ± 0.4%. In data set [1] (setting [9]), the inhibition at 30 µM was determined as 39.4 ± 0.2%. In addition, the IC50 in data set [2] stood at 20.8 ± 0.3 µM. In data set [3], this compound returned an IC50 of 20.6 ± 0.2 µM. In addition, in data set [4], the midpoint of inhibition, the IC50 at 48 h, lay at 76.3 ± 0.2 µM. For the same compound, the IC50 in data set [5] was 21.9 ± 0.2 µM.
Regarding `CN(C)CCCNc1nc(-c2ccccc2NC(=O)CCCN2CCCC2)nc2ccccc12` [Compound 12b], the results for the inhibition at 15 µM in data set [1] (setting [6]) and in data set [1] (setting [8]) were 29.8 ± 0.1% and 38.4 ± 0.2%, respectively. In addition, the inhibition at 30 µM in data set [1] (setting [7]) is 49.3 ± 0.1%; in data set [1] (setting [9]), 60.1 ± 0.2%. Moreover, the IC50 in data set [2] was 15.3 ± 0.2 µM; in data set [3] it was 16.4 ± 0.3 µM; in data set [5] it was 18.9 ± 0.4 µM. Moreover, half-maximal inhibition in data set [4] (IC50 at 48 h) was put at 39.4 ± 0.1 µM.
Regarding `CN(C)CCCNc1nc(-c2ccccc2NC(=O)CN2CCCC2)nc2ccccc12` [Compound 10b, N-(2-(4-(3-(dimethylamino)propylamino)quinazolin-2-yl)phenyl)-2-(pyrrolidin-1-yl)acetamide], the melting point was 174 to 175 °C. Moreover, the inhibition at 15 µM in data set [1] (setting [6]) is 28.3 ± 0.1%. In addition, in data set [1] (setting [7]), the inhibition at 30 µM is 33 ± 0.2%. In data set [1] (setting [8]), the inhibition at 15 µM was 27.8 ± 0.2%. In data set [1] (setting [9]), the inhibition at 30 µM came to 34.8 ± 0.2%. In data set [2], this compound returned an IC50 of 17.9 ± 0.4 µM. This compound also came in with an IC50 in data set [3] of 14.9 ± 0.2 µM. Moreover, half-maximal inhibition in data set [4] (IC50 at 48 h) was put at 39.3 ± 0.3 µM. Also, in data set [5], the IC50 came out at 16.7 ± 0.2 µM.
Consider `CN(C)CCCNc1nc(-c2ccccc2NC(=O)CCCN2CCCCC2)nc2ccccc12` [Compound 12a, N-(2-(4-(3-(Dimethylamino)propylamino)quinazolin-2-yl)phenyl)-4-(piperidin-1-yl)butanamide], for which the melting point lay in the range of 159 to 160 °C. In data set [1] (setting [6]), the inhibition at 15 µM was 33.6 ± 0.2%. The inhibition at 30 µM in data set [1] (setting [7]) was determined as 57.9 ± 0.3%. The inhibition at 15 µM in data set [1] (setting [8]) turned out to be 40.6 ± 0.3%. In addition, the inhibition at 30 µM in data set [1] (setting [9]) came to 61.2 ± 0.3%. Further, in data set [2], half-maximal inhibition (IC50) required 16.5 ± 0.1 µM. In data set [3], this compound gave an IC50 of 17.3 ± 0.3 µM. Further, in data set [4], half-maximal inhibition (IC50 at 48 h) was put at 41.7 ± 0.3 µM. In data set [5], this compound displayed an IC50 of 17.7 ± 0.2 µM.
On to `CCN(CC)CC(=O)Nc1ccccc1-c1nc(NCCCN(C)C)c2ccccc2n1` [Compound 10c, N-(2-(4-(3-(Dimethylamino)propylamino)quinazolin-2-yl)phenyl)-2-(diethylamino)acetamide], for which the inhibition at 15 µM was 18.9 ± 0.3% in data set [1] (setting [6]) and 16.4 ± 0.4% in data set [1] (setting [8]). For the same compound, the values for the inhibition at 30 µM in data set [1] (setting [7]) and in data set [1] (setting [9]) were 27.8 ± 0.2% and 29.5 ± 0.1%, respectively. The IC50 in data set [2] amounted to 19.4 ± 0.1 µM; in data set [3], 17.1 ± 0.4 µM; in data set [5], 17.6 ± 0.1 µM. This compound also gave an IC50 at 48 h in data set [4] of 56.2 ± 0.2 µM.
